Measured values taken from the supplement of paper PMC10307832.

How the values were obtained:
Test in all cases: relative viability (nuclei count vs DMSO), 5 days (fraction); higher = more cells survive
AT9283 = compound: O=C(Nc1c[nH]nc1-c1nc2ccc(CN3CCOCC3)cc2[nH]1)NC1CC1 [AT9283]
Procedure, shortened: (§1)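 After an overnight hold at 37 °C, lung cancer cell lines in 1536-well plates were pinned with five library-drug doses (not always all listed), each √10 from the next, on vehicle-anchored plates. The cells stayed 5 days without fresh medium, then a one-step fix, permeabilisation and Hoechst stain preceded 4× imaging and MetaXpress nuclear counts. A plate passed only with control CV under 25% and at least one doubling. Viability is the median, over plates, of treated-well nuclei relative to vehicle-well nuclei.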

Erlotinib = compound: C#Cc1cccc(Nc2ncnc3cc(OCCOC)c(OCCOC)cc23)c1 [Erlotinib]
Procedure, shortened: as §1

Phenformin = compound: N=C(N)NC(=N)NCCc1ccccc1 [Phenformin] (anchor plate); settings: 250 µM
Procedure, shortened: as §1

Erlotinib + Pictilisib = compound: C#Cc1cccc(Nc2ncnc3cc(OCCOC)c(OCCOC)cc23)c1 [Erlotinib] + CS(=O)(=O)N1CCN(Cc2cc3nc(-c4cccc5[nH]ncc45)nc(N4CCOCC4)c3s2)CC1 [Pictilisib] (partner 1 µM)
Procedure, shortened: (§2)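 Relative viability was taken as the ratio of nuclei in treated wells to nuclei in vehicle wells. Lung cancer cell lines in 1536-well plates received compounds by pin tool one day after seeding, either one drug alone or a fixed anchor-drug dose plus five library-drug doses (not always all listed) in √10 steps. Nuclei were counted on 4× images after 5 days of treatment, and values are medians of duplicate plates.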

Erlotinib + Crizotinib = compound: C#Cc1cccc(Nc2ncnc3cc(OCCOC)c(OCCOC)cc23)c1 [Erlotinib] + C[C@@H](Oc1cc(-c2cnn(C3CCNCC3)c2)cnc1N)c1c(Cl)ccc(F)c1Cl [Crizotinib] (partner 1 µM)
Procedure, shortened: as §2

Cell Line | relative viability (AT9283; 0.003 µM) | relative viability (AT9283; 0.03 µM) | relative viability (AT9283; 0.09487 µM) | relative viability (AT9283; 0.3 µM) | relative viability (Erlotinib; 0.02 µM) | relative viability (Erlotinib; 0.2 µM) | relative viability (Erlotinib; 0.6325 µM) | relative viability (Erlotinib; 2 µM) | relative viability (Phenformin) | relative viability (Erlotinib + Pictilisib; first compound 0.02 µM) | relative viability (Erlotinib + Pictilisib; first compound 0.2 µM) | relative viability (Erlotinib + Pictilisib; first compound 0.6325 µM) | relative viability (Erlotinib + Pictilisib; first compound 2 µM) | relative viability (Erlotinib + Crizotinib; first compound 0.02 µM) | relative viability (Erlotinib + Crizotinib; first compound 0.2 µM) | relative viability (Erlotinib + Crizotinib; first compound 0.6325 µM) | relative viability (Erlotinib + Crizotinib; first compound 2 µM)
NCI-H2228 | 1.08 | 0.769 | 0.33 | 0.187 | 0.959 | 1 | 1.07 | 0.871 | 0.318 | 0.385 | 0.405 | 0.351 | 0.348 | 0.516 | 0.476 | 0.379 | 0.32
NCI-H647 | 0.902 | 0.434 | 0.167 | 0.11 | 0.878 | 0.829 | 1.08 | 0.912 | 0.554 | 0.445 | 0.359 | 0.499 | 0.46 | 1.2 | 1.09 | 1.26 | 0.811
NCI-H1651 | 0.951 | 0.999 | 0.875 | 0.455 | 1.03 | 0.896 | 1.04 | 0.946 | 0.328 | 0.511 | 0.628 | 0.662 | 0.5 | 0.876 | 0.801 | 0.92 | 0.786
NCI-H1993 | 0.961 | 0.907 | 0.59 | 0.497 | 0.965 | 0.748 | 0.714 | – | 0.497 | 0.807 | 0.745 | 0.946 | 0.901 | 0.816 | 0.646 | 0.854 | 0.713
HCC-827 | 0.985 | 0.855 | 0.618 | 0.358 | 0.549 | 0.185 | 0.177 | 0.208 | 0.4 | 0.374 | 0.241 | 0.273 | 0.329 | 0.371 | 0.195 | 0.174 | 0.177
SK-LU-1 | 1.06 | 0.691 | 0.312 | 0.335 | 1.11 | 1.11 | 1.13 | 0.907 | 0.523 | 0.695 | 0.665 | 0.598 | 0.58 | 1.26 | 0.914 | 0.834 | 0.727
NCI-H1944 | 0.903 | 0.629 | 0.367 | 0.268 | – | 0.72 | 0.916 | 0.594 | 0.206 | 0.357 | 0.304 | 0.346 | 0.33 | 0.964 | 0.701 | 0.844 | 0.626
BEN | 0.874 | 0.965 | 0.23 | 0.278 | 0.927 | 0.954 | 1.19 | 0.961 | 0.263 | 0.466 | 0.483 | 0.683 | 0.514 | 0.957 | 0.738 | 0.913 | 0.779
ABC-1 | 0.831 | 0.301 | 0.3 | 0.235 | 0.827 | 0.881 | 1.01 | 0.81 | 0.25 | 0.656 | 0.71 | 0.847 | 0.589 | 1.07 | 1.14 | 1.44 | 1.18
